Results reported in ChEMBL document CHEMBL5131449, “Synthetic Biology-Based Discovery of Diterpenoid Pyrones from the Genome of Eupenicillium shearii” (J Nat Prod, 2022).
Calls of active or inactive are those of the source. The calls are words filed in the database; no cut-off is given here.

What follows are compounds tested against Amyloid-beta precursor protein (Homo sapiens) (UniProt P05067) (assay: Inhibition of HFIP-pretreated amyloid beta (1 to 42) (unknown origin) aggregation assessed as suppression of amyloid beta aggregation at 50 uM incubated for 24 hrs by Thioflavin T based fluorescence assay).
Sequence of Amyloid-beta precursor protein (Homo sapiens) (P05067 whole entry): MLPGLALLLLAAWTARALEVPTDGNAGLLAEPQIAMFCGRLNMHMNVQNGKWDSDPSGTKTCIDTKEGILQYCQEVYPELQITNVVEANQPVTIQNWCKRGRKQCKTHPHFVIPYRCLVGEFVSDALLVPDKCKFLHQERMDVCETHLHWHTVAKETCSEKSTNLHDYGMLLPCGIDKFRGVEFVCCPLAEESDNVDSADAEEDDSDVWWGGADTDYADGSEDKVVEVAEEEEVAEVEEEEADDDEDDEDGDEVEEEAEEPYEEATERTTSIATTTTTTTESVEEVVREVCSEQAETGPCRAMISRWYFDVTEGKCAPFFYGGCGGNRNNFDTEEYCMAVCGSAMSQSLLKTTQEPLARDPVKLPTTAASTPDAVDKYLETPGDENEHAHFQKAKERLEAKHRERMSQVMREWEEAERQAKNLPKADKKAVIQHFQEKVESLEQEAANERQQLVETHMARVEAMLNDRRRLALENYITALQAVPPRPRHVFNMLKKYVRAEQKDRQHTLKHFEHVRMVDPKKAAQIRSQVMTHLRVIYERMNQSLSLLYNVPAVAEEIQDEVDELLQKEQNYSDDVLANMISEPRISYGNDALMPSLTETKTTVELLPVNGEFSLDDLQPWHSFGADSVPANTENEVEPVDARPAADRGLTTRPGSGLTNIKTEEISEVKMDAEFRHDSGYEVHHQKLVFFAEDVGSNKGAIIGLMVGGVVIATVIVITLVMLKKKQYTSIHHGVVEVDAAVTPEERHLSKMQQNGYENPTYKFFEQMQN
Format: cell-based

Row | SMILES | inhibition
1 | Cc1oc(=O)c2c(c1C)O[C@@]1(C)[C@H](O)[C@H](O)[C@H]3[C@@](C)(CC[C@H]4C(C)(C)[C@@]5(O)CC[C@@]43CO5)[C@@H]1C2 | Active
2 | Cc1oc(=O)c2c(c1C)O[C@@]1(C)[C@H](O)[C@H](O)[C@@H]3[C@@]4(C)CCC(=O)C(C)(C)[C@@H]4CC[C@@]3(C)[C@@H]1C2 | Active
3 | Cc1oc(=O)c2c(c1C)O[C@@]1(C)[C@H](O)[C@H](O)[C@H]3[C@@](C)(CC[C@H]4C(C)(C)[C@@H](O)CC[C@@]43CO)[C@@H]1C2 | Active
